Laboratory results published in patent US20080274543A1, “Neuronal Cell Propagation Using Rotating Wall Vessel” (THE ADMINISTRATORS OF THE TULANE EDUCATIONAL FUND, priority 2007, published 2008).
Several values for one entry are separate records, joined by “and”; a condition that tells them apart may be missing. Equal entries are not always repeated.

Tested on: SY cells
Experiment: TUNEL apoptosis assay, TG-stimulated SY cells in 3-D versus 2-D culture
Type: cell-based, human
Experimental: SY cells (1×10^6) cultured in 2-D or 3-D were incubated with or without 10 nM TG. The 2-D and 3-D cells were harvested using trypsin, washed in PBS, and fixed for 5-10 min in 2% PFA. Prior to fixation, the 3-D-cultured cells treated inside of the RWV were separated from the beads using a 40-μm cell strainer (Becton Dickinson). The fixed cells were permeabilized in PBS/FSG/Triton and blocked with 10% NGS. Apoptosis was evaluated using the Apoptag TUNEL assay kit (Chemicon). The results were analyzed using a Leica TCS SP2 confocal microscope as described above. Cell morphology consistent with apoptosis including cell shrinkage, nuclear condensation and membrane blebbing were assessed along with the fluorescein staining for TUNEL. The number of apoptotic cells counted was divided by the total (500 minimum) number of cells counted. This protocol was also followed for evaluation of apoptosis in PC12 cells. An increased drug tolerance, 30-nM TG was used in the PC12 assay. 3-D-cultured PC12 samples were stimulated for 5 days after removal from the RWV to multi-well dishes.
Thapsigargin (TG) is known to induce apoptosis through the passive release of Ca^2+ from ER stores. These events lead to subsequent increases in cytosolic Ca^2+, stressing both the ER and the mitochondria (Elyaman et al., 2002; Nechushtan A, Smith C L, Lamensdorf I, Yoon S H, Youle R J. Bax and Bak coalesce into novel mitochondria-associated clusters during apoptosis. The Journal of cell biology, 2001; 153: 1265-76; Nguyen H N, Wang C, Perry D C. Depletion of intracellular calcium stores is toxic to SH-SY5Y neuronal cells. Brain Res, 2002; 924: 159-66; Scorrano et al., 2003; Zong W X, Li C, Hatzivassiliou G, Lindsten T, Yu Q C, Yuan J, Thompson C B. Bax and Bak can localize to the endoplasmic reticulum to initiate apoptosis. The Journal of cell biology, 2003; 162: 59-69). In order to determine inherent differences in apoptosis between the 3-D and 2-D cultured cells, the terminal uridine deoxynucleotidyl transferase dUTP nick end labeling (TUNEL) assay was used. […]

SMILES: C/C=C(/C)C(=O)O[C@H]1C(C)=C2[C@H]([C@@H]1OC(=O)CCCCCCC)[C@@](C)(OC(C)=O)C[C@H](OC(=O)CCC)[C@@]1(O)[C@H]2OC(=O)[C@@]1(C)O [TG, Thapsigargin]
- thapsigargin-induced apoptosis in 3D cultured SH-SY5Y cells versus monolayer (3D versus ML culture): notably enhanced
- degree of apoptosis in TG-stimulated versus control cells at 24 h (24 h, TG 10 nM): noticeable difference in the degree of apoptosis occurring in stimulated versus control cells was found only in the 3-D(RWV) cells
- increase in TUNEL-positive (apoptotic) SY cells, 3-D versus 2-D culture, when treated with TG (TG 10 nM, 5 days, 3-D+TG versus 2-D+TG): 4 to 7 fold and 4- to 7 fold
